Measurements from PubChem BioAssay AID256 (DTP/NCI, 2004).
Where “and” joins values, the source holds several entries; their conditions need not be identical. Identical values can stand only once. Inconclusive results and toxic doses are left out. How the source made its calls: active means survival T/C of 150% or more; inactive means T/C below 125% in these data.

Tested on: CD2F1 mice, L1210 leukemia ip, survival T/C
Experiment: NCI In Vivo Anticancer Drug Screen. Data for tumor model L1210 Leukemia (intraperitoneal) in CD2F1 (CDF1) mice
Conditions: higher = longer survival
How it was run: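 Each value reflects a quotient of treated over vehicle control outcomes in mice with a transplanted tumor.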

[1] = endpoint: mean survival time, dose: 25.0 mg/kg/injection, schedule: Q01DX001 (ip), vehicle: saline with Tween-80
[2] = endpoint: mean survival time, dose: 50.0 mg/kg/injection, schedule: Q01DX001 (ip), vehicle: saline with Tween-80
[3] = endpoint: mean survival time, dose: 100.0 mg/kg/injection, schedule: Q01DX001 (ip), vehicle: saline with Tween-80
[4] = endpoint: mean survival time, dose: 200.0 mg/kg/injection, schedule: Q01DX001 (ip), vehicle: saline with Tween-80
[5] = endpoint: mean survival time, dose: 100.0 mg/kg/injection, schedule: Q04DX003 (ip), vehicle: saline with Tween-80
[6] = endpoint: mean survival time, dose: 200.0 mg/kg/injection, schedule: Q04DX003 (ip), vehicle: saline with Tween-80
[7] = endpoint: mean survival time, dose: 400.0 mg/kg/injection, schedule: Q04DX003 (ip), vehicle: saline with Tween-80
[8] = endpoint: mean survival time, dose: 400.0 mg/kg/injection, schedule: Q01DX001 (ip), vehicle: saline with Tween-80
[9] = endpoint: mean survival time, dose: 100.0 mg/kg/injection, schedule: Q01DX009 (ip), vehicle: saline with Tween-80
[10] = endpoint: mean survival time, dose: 200.0 mg/kg/injection, schedule: Q01DX009 (ip), vehicle: saline with Tween-80
[11] = endpoint: mean survival time, dose: 400.0 mg/kg/injection, schedule: Q01DX009 (ip), vehicle: saline with Tween-80

Measured: T/C

CCCCCCCCCCCCCCCCCC[N+]1(C)CCSCC1
inactive: endpoint: mean survival time, dose: 12.5 mg/kg/injection, schedule: Q01DX001 (ip), vehicle: saline with Tween-80 95 % of control | [1] 103 % of control | [2] 104 % of control | [3] 91 % of control and 101 % of control | [4] 101 % of control and 110 % of control

Cc1cn(C2CC(O)C(CO)O2)c(=O)nc1NCc1ccco1 (centres undefined)
inactive: endpoint: median survival time, dose: 12.5 mg/kg/injection, schedule: Q01DX005 (ip), vehicle: water 103 % of control | endpoint: median survival time, dose: 25.0 mg/kg/injection, schedule: Q01DX005 (ip), vehicle: water 103 % of control | endpoint: median survival time, dose: 50.0 mg/kg/injection, schedule: Q01DX005 (ip), vehicle: water 104 % of control | endpoint: median survival time, dose: 100.0 mg/kg/injection, schedule: Q01DX005 (ip), vehicle: water 105 % of control | endpoint: median survival time, dose: 200.0 mg/kg/injection, schedule: Q01DX005 (ip), vehicle: water 102 % of control

CCC1C(C)CNC1C (centres undefined)
inactive: [3] 100 % of control

Nc1ncnc2nc(-c3ccccc3)[nH]c12
inactive: [5] 100 % of control | [6] 99 % of control | [7] 99 % of control

CC(=O)OCC1OC(n2cnc3c(Cl)ncnc32)C(OC(C)=O)C1OC(C)=O (centres undefined)
inactive: endpoint: mean survival time, dose: 12.5 mg/kg/injection, schedule: Q01DX005 (ip), vehicle: other 94 % of control | endpoint: mean survival time, dose: 25.0 mg/kg/injection, schedule: Q01DX005 (ip), vehicle: other 88 % of control | endpoint: mean survival time, dose: 50.0 mg/kg/injection, schedule: Q01DX005 (ip), vehicle: other 98 % of control | endpoint: mean survival time, dose: 100.0 mg/kg/injection, schedule: Q01DX005 (ip), vehicle: other 96 % of control | endpoint: mean survival time, dose: 200.0 mg/kg/injection, schedule: Q01DX005 (ip), vehicle: other 100 % of control | endpoint: mean survival time, dose: 400.0 mg/kg/injection, schedule: Q01DX005 (ip), vehicle: other 102 % of control

Oc1ccc(Br)cc1/C=N/c1nc(-c2ccccc2)cs1.Oc1ccc(Br)cc1/C=N/c1nc(-c2ccccc2)cs1.[Co]
inactive: endpoint: mean survival time, dose: 100.0 mg/kg/injection, schedule: Q01DX001 (ip), vehicle: saline 100 % of control | endpoint: mean survival time, dose: 200.0 mg/kg/injection, schedule: Q01DX001 (ip), vehicle: saline 89 % of control

NC(=O)C12CCCCC1CCC(=O)C2 (centres undefined)
inactive: endpoint: mean survival time, dose: 25.0 mg/kg/injection, schedule: Q04DX003 (ip), vehicle: saline 93 % of control | endpoint: mean survival time, dose: 50.0 mg/kg/injection, schedule: Q04DX003 (ip), vehicle: saline 96 % of control | endpoint: mean survival time, dose: 100.0 mg/kg/injection, schedule: Q04DX003 (ip), vehicle: saline 90 % of control

O=C1Nc2ccc3c4c(ccc1c24)CC3
inactive: [3] 105 % of control | [8] 94 % of control

O=C(O)CCCCCCCCC(=O)O (tested in a mixture with another compound)
inactive: endpoint: mean survival time, dose: 50.0 mg/kg/injection, schedule: Q01DX009 (ip), vehicle: saline with Tween-80 100 % of control | [9] 100 % of control | [10] 102 % of control

CC12CCC3c4ccc(O)cc4CCC3C1CCC2S (centres undefined)
inactive: [5] 88 % of control | [6] 92 % of control

CC(C)C(C=O)C(O)(C(F)(F)F)C(F)(F)Cl (centres undefined)
inactive: [5] 91 % of control

CCCCNc1ncnc2c1cnn2C
inactive: endpoint: mean survival time, dose: 4.0 mg/kg/injection, schedule: Q01DX Z (ip), vehicle: saline 97 % of control | endpoint: mean survival time, dose: 8.0 mg/kg/injection, schedule: Q01DX Z (ip), vehicle: saline 96 % of control | endpoint: mean survival time, dose: 12.5 mg/kg/injection, schedule: Q01DX005 (ip), vehicle: saline with Tween-80 94 % of control | endpoint: mean survival time, dose: 16.0 mg/kg/injection, schedule: Q01DX Z (ip), vehicle: saline 100 % of control | endpoint: mean survival time, dose: 25.0 mg/kg/injection, schedule: Q01DX005 (ip), vehicle: saline with Tween-80 100 % of control | endpoint: mean survival time, dose: 31.0 mg/kg/injection, schedule: Q01DX Z (ip), vehicle: saline 103 % of control | endpoint: mean survival time, dose: 50.0 mg/kg/injection, schedule: Q01DX005 (ip), vehicle: saline with Tween-80 104 % of control | endpoint: mean survival time, dose: 100.0 mg/kg/injection, schedule: Q01DX005 (ip), vehicle: saline with Tween-80 98 % of control | endpoint: mean survival time, dose: 200.0 mg/kg/injection, schedule: Q01DX005 (ip), vehicle: saline with Tween-80 100 % of control | endpoint: median survival time, dose: 31.3 mg/kg/injection, schedule: Q01DX009 (ip), vehicle: saline 100 % of control | endpoint: median survival time, dose: 62.5 mg/kg/injection, schedule: Q01DX009 (ip), vehicle: saline 100 % of control | endpoint: median survival time, dose: 125.0 mg/kg/injection, schedule: Q01DX009 (ip), vehicle: saline 105 % of control

O=CNc1ccccc1Cl
inactive: [9] 101 % of control | [5] 94 % of control | [10] 98 % of control | [6] 95 % of control | [11] 91 % of control | [7] 91 % of control

Cc1nc2nc(N)[nH]c(=O)c2nc1C
inactive: [3] 95 % of control | [4] 98 % of control | [8] 90 % of control

CSc1ccccc1N=Cc1cc(Cl)ccc1O
inactive: [1] 96 % of control | [2] 96 % of control | [3] 96 % of control

CCCCCC(C)(C)N=[P+]([O-])NC(C)(C)CCCCC (centres undefined)
inactive: endpoint: mean survival time, dose: 25.0 mg/kg/injection, schedule: Q04DX002 (ip), vehicle: saline with Tween-80 95 % of control | endpoint: mean survival time, dose: 50.0 mg/kg/injection, schedule: Q04DX002 (ip), vehicle: saline with Tween-80 102 % of control | endpoint: mean survival time, dose: 100.0 mg/kg/injection, schedule: Q04DX002 (ip), vehicle: saline with Tween-80 95 % of control and 98 % of control

C=CC[P+](c1ccccc1)(c1ccccc1)c1ccccc1
inactive: endpoint: mean survival time, dose: 6.25 mg/kg/injection, schedule: Q01DX001 (ip), vehicle: saline 101 % of control | endpoint: mean survival time, dose: 12.5 mg/kg/injection, schedule: Q01DX001 (ip), vehicle: saline 100 % of control and 112 % of control | endpoint: mean survival time, dose: 25.0 mg/kg/injection, schedule: Q01DX001 (ip), vehicle: saline 96 % of control and 103 % of control

CNC(=O)OC[C@H]1C2=C(C(=O)C(C)=C(N)C2=O)N2C[C@H]3N[C@H]3[C@@]12OC
inactive: endpoint: mean survival time, dose: 13.75 mg/kg/injection, schedule: Q01DX001 (ip), vehicle: carboxymethylcellulose (CMC) 113 % of control

O=c1cc(C(F)(F)F)[nH]c2ccc(F)cc12
inactive: endpoint: mean survival time, dose: 5.0 mg/kg/injection, schedule: Q01DX009 (ip), vehicle: saline with Tween-80 101 % of control | endpoint: mean survival time, dose: 10.0 mg/kg/injection, schedule: Q01DX009 (ip), vehicle: saline with Tween-80 100 % of control | endpoint: mean survival time, dose: 20.0 mg/kg/injection, schedule: Q01DX009 (ip), vehicle: saline with Tween-80 96 % of control

O=C(c1ccccc1)N(CCCCl)C(=O)N(CCCCl)C(=O)c1ccccc1
inactive: [5] 105 % of control | [6] 100 % of control | [7] 108 % of control

CCOC(CCC#N)c1ccc(Cl)cc1 (centres undefined)
inactive: endpoint: mean survival time, dose: 100.0 mg/kg/injection, schedule: Q01DX009 (ip), vehicle: saline 98 % of control | [5] 92 % of control | endpoint: mean survival time, dose: 200.0 mg/kg/injection, schedule: Q01DX009 (ip), vehicle: saline 101 % of control | [6] 100 % of control | endpoint: mean survival time, dose: 400.0 mg/kg/injection, schedule: Q01DX009 (ip), vehicle: saline 98 % of control | [7] 102 % of control

COc1cc(OC)c(NC(=O)NC(C)C)cc1Cl
inactive: [9] 100 % of control | [10] 96 % of control | [11] 100 % of control

Cc1ccc([NH-])cc1C.Cc1ccc([NH-])cc1C.[Cl][Pt+2][Cl]
inactive: endpoint: mean survival time, dose: 3.12 mg/kg/injection, schedule: Q04DX003 (ip), vehicle: distilled water + Tween-80 103 % of control | endpoint: mean survival time, dose: 6.25 mg/kg/injection, schedule: Q04DX003 (ip), vehicle: distilled water + Tween-80 103 % of control | endpoint: mean survival time, dose: 12.5 mg/kg/injection, schedule: Q04DX003 (ip), vehicle: distilled water + Tween-80 108 % of control | endpoint: mean survival time, dose: 25.0 mg/kg/injection, schedule: Q04DX003 (ip), vehicle: distilled water + Tween-80 106 % of control | endpoint: mean survival time, dose: 50.0 mg/kg/injection, schedule: Q04DX003 (ip), vehicle: distilled water + Tween-80 108 % of control
